We go through twelve compounds from patent US8207156B2, “Substituted pyrazoline compounds, their preparation and use as medicaments” (Laboratorios Del Dr. Esteve, S.A., priority 2005, dated 2012).

SMILES strings stand for the structures. Where only a bound is given, the exact number is not on record here.

The target of experiment [1] is T1, CB1 receptor.
T1 construct: IC50 [nM]; radioligand [3H]-CP55940
The experiment can be described thus: In-vitro determination of affinity to CB1/CB2-receptors (radioligand [3H]-CP55940 binding). The note with it: binding data per pharmacological methods part I, table does not say whether human transfected receptor or rat cerebellum. The essentials:
(§1)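 Transfected human CB1/CB2 receptors were tested with [3H]-CP55940. In the modified Govaerts method, rat cerebellum membranes (100 µg protein) were incubated with 1 nM [3H]-CP55940 and compound for 1 h at 30 °C in Tris-HCl/MgCl2/EDTA/0.5% BSA, pH 7.4, with 10 µM HU-210 defining non-specific binding. Filter-bound radioactivity was counted in triplicate and analysed by non-linear regression.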

Experiment [2] has as its target recombinant human cannabinoid 1 receptor (CB1) (Homo sapiens, UniProt P21554). As to the kind of experiment: In vitro determination of antagonism to CB1-receptor ([35S]GTPγS binding assay, CHO cell membranes). Type of experiment: biochemical. The note with it: compound at 1 μM against agonist WIN 55,212-2 (3 nM to 3 μM); effect of Rimonabant (1 μM) defined as 100%. The essentials: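 Membranes from CHO cells stably expressing human CB1 (15 μg protein/well) incubated 60 min at 30° C., pH 7.4, with 5 μM GDP, saponin and 0.5 nM [35S]GTPγS, compound at 1 μM final, with or without WIN 55,212-2 (3 nM–3 μM). Bound radioactivity via filtration; basal subtracted, antagonism scaled to WIN 55,212-2 ± Rimonabant (1 μM) window as 100%.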

Experiment [3] addresses T2, CB1 receptor (UniProt P20272).
T2 construct: other: compound at 10^−7 M; radioligand [3H]-CP55940; other: compound at 10^−8 M
The experiment can be described thus: In-vitro determination of affinity to CB1/CB2-receptors (radioligand [3H]-CP55940 binding). The gist of the method:
as §1

Chain of recombinant human cannabinoid 1 receptor (CB1) (P21554 whole entry): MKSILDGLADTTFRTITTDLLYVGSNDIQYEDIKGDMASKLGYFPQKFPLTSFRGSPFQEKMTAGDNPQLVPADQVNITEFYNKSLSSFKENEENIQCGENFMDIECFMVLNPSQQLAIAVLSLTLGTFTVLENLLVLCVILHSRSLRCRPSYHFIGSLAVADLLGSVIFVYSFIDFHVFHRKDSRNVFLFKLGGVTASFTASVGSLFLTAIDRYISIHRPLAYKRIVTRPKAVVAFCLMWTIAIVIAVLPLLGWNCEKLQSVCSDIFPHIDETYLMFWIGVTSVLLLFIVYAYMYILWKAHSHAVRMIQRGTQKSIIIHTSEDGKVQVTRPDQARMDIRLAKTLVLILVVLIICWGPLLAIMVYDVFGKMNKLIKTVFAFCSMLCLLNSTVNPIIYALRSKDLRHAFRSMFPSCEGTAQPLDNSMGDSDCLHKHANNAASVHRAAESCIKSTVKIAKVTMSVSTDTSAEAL

For the compound `COc1ccc(C2CC(C(=O)NN3CCCCC3)=NN2c2ccc(Cl)cc2Cl)cc1` (centres unmarked) [Example 106A, 1-(2,4-Dichloro-phenyl)-5-(4-methoxy-phenyl)-4,5-dihydro-1H-pyrazole-3-carboxylic acid piperidin-1-ylamide], at CB1 receptor [1], the half-inhibitory concentration (IC50) (as a rule, the concentration needed to halve the response being measured) was found to be 20 nM. Moreover, the “Antagonism [%]” value in experiment [2] was found to be 112%.

Take `CC1CCCCC1NC(=O)C1=NN(c2ccc(Cl)cc2Cl)C(c2ccc(Cl)cc2)C1` (centres unmarked) [Example 18, 5-(4-Chloro-phenyl)-1-(2,4-dichloro-phenyl)-4,5-dihydro-1H-pyrazole-3-carboxylic acid (2-methyl-cyclohexyl)-amide]: the IC50 on CB1 receptor [1] came out at 25.1 nM. Also, the “Antagonism [%]” value in experiment [2] is on record as 78%.

At CB1 receptor [1] (hydrochloride), `CC1CCCC(C)N1NC(=O)C1=NN(c2ccc(Cl)cc2Cl)C(c2ccc(Cl)cc2)C1.Cl` (centres unmarked) [Example 192, 5-(4-Chloro-phenyl)-1-(2,4-dichloro-phenyl)-4,5-dihydro-1H-pyrazole-3-carboxylic acid (2,6-dimethyl-piperidin-1-yl)-amide hydrochloride] gave an IC50 of 501 nM. Besides, in experiment [2], the “Antagonism [%]” value came to 63%.

As for `O=C(NN1CCCCC1)C1=NN(c2ccc(Cl)cc2Cl)C(c2ccc(F)cc2)C1` (centres unmarked) [Example 23, 1-(2,4-Dichloro-phenyl)-5-(4-fluoro-phenyl)-4,5-dihydro-1H-pyrazole-3-carboxylic acid piperidin-1-ylamide], the IC50 on CB1 receptor [1] turned out to be 39.8 nM. In addition, the “Antagonism [%]” value in experiment [2] stood at 91%.

In the case of `O=C(NN1CCN(C2CCCC2)CC1)C1=NN(c2ccc(Cl)cc2Cl)C(c2ccc(Br)cc2)C1` (centres unmarked) [Example 64, 5-(4-Bromo-phenyl)-1-(2,4-dichloro-phenyl)-4,5-dihydro-1H-pyrazole-3-carboxylic acid (4-cyclopentyl-piperazin-1-yl)-amide], on CB1 receptor [1], the IC50 turned out to be 562 nM. In addition, the “Antagonism [%]” value in experiment [2] turned out to be 63%.

As to `CC1CCCC(NC(=O)C2=NN(c3ccc(Cl)cc3Cl)C(c3ccc(Cl)cc3)C2)C1` (centres unmarked) [Example 57, 5-(4-Chloro-phenyl)-1-(2,4-dichloro-phenyl)-4,5-dihydro-1H-pyrazole-3-carboxylic acid (3-methyl-cyclohexyl)-amide], on CB1 receptor [1], the IC50 came out at 39.8 nM. Also, in experiment [2], the “Antagonism [%]” value was 81%.

With `O=C(NC1CCCC1)C1=NN(c2ccc(Cl)cc2Cl)C(c2ccc(Cl)cc2)C1` (centres unmarked) [Example 37, 5-(4-Chloro-phenyl)-1-(2,4-dichloro-phenyl)-4,5-dihydro-1H-pyrazole-3-carboxylic acid cyclopentylamide], on CB1 receptor [1], the IC50 stood at 280 nM. The “Antagonism [%]” value in experiment [2] came out at 81%.

`CC1Cc2ccccc2N1NC(=O)C1=NN(c2ccc(Cl)cc2Cl)C(c2ccc(Cl)cc2)C1` (centres unmarked) [Example 27, 5-(4-Chloro-phenyl)-1-(2,4-dichloro-phenyl)-4,5-dihydro-1H-pyrazole-3-carboxylic acid (2-methyl-2,3-dihydro-indol-1-yl)-amide]: the “Inhibition [%], 10^−7 M” value at CB1 receptor [3] (compound at 10^−7 M) is given as 50.7%. The “Inhibition [%], 10^−8 M” value at CB1 receptor [3] (compound at 10^−8 M) came to 32.9%. This compound also came in with a half-inhibitory concentration (IC50) on CB1 receptor [1] of 117 nM. For the same compound, the “Antagonism [%]” value in experiment [2] was 31%.

On CB1 receptor [1], `Cl.O=C(NN1CCc2ccccc21)C1=NN(c2ccc(Cl)cc2Cl)C(c2ccc(Br)cc2)C1` (centres unmarked) [Example 66, 5-(4-Bromo-phenyl)-1-(2,4-dichloro-phenyl)-4,5-dihydro-1H-pyrazole-3-carboxylic acid (2,3-dihydro-indol-1-yl)-amide hydrochloride] yielded an IC50 of 100 nM. In addition, the “Antagonism [%]” value in experiment [2] was 86%.

`O=C(NN1CC2CCCC2C1)C1=NN(c2ccc(Cl)cc2Cl)C(c2ccc(Br)cc2)C1` (centres unmarked) [Example 63, 5-(4-Bromo-phenyl)-1-(2,4-dichloro-phenyl)-4,5-dihydro-1H-pyrazole-3-carboxylic acid (hexahydro-cyclopenta[c]pyrrol-2-yl)-amide] showed an IC50 on CB1 receptor [1] of 25.1 nM. In experiment [2], the “Antagonism [%]” value is recorded as 119%.

`C[C@@H]1CN(C(=O)C2=NN(c3ccc(Cl)cc3Cl)C(c3ccc(Cl)cc3)C2)C[C@H](C)O1` (some centres unmarked) [Example 80, [5-(4-Chloro-phenyl)-1-(2,4-dichloro-phenyl)-4,5-dihydro-1H-pyrazol-3-yl]-(2,6-dimethyl-morpholin-4-yl)-methanone] displayed an IC50 on CB1 receptor [1] of 501 nM. Moreover, in experiment [2], the “Antagonism [%]” value was 56%.

Regarding `O=C(C1=NN(c2ccc(Cl)cc2Cl)C(c2ccc(Cl)cc2)C1)N1C=NCCC1` (centres unmarked) [Example 75, [5-(4-Chloro-phenyl)-1-(2,4-dichloro-phenyl)-4,5-dihydro-1H-pyrazol-3-yl]-(5,6-dihydro-4H-pyrimidin-1-yl)-methanone], at CB1 receptor [1], the IC50 is over 1000 nM. Also, in experiment [2], the “Antagonism [%]” value stood at 42%.
